Results as given in patent US20080058213A1, “Benzoxazole Compounds” (priority 2004, published 2008).

Legend:
Format in all cases: in vivo
[1] = test system: barnyard grass (Echinochloa crusgalli); assay: Weed control test for paddy field (Test Example 1): barnyard grass; conditions: paddy pots, treated at 1.0 leaf stage of barnyard grass, examined after 3 weeks
Source text: (§1) Paddy field soil was filled in 1/10,000 are pots, kneaded with adequate amounts of water and chemical fertilizer, seeded with barnyard grass (Echinochloa crusgalli), Monochoria (Monochoria vaginalis), Japanese bulrush (Scirpus juncoides) and flat sedge (Cyperus serotinus), and further transplanted with 2.0 leaf stage of rice plant. The pots were maintained under the water-filled condition to a depth of 3 cm.
(§2) Wettable powders containing the compounds (1) as identified in Table 1, which were formulated following Production Example 2, were diluted with adequate amount of water and applied to the pots dropwise with pippet at a prescribed dose of the active ingredients per are, at 1.0 leaf stage of the barnyard grass.
(§3) After placing the pots in a glasshouse which was controlled at an average temperature of 25° C. for 3 weeks, herbicidal effect was examined.
(§4) Evaluation of the herbicidal effect is shown in the following six grades, by comparing the condition of untreated control and growth inhibition (%): • 0: 0%-less than 20% • 1: 20%-less than 40% • 2: 40%-less than 60% • 3: 60%-less than 80% • 4: 80%-less than 100% • 5: 100%.

[2] = test system: Monochoria (Monochoria vaginalis); assay: Weed control test for paddy field (Test Example 1): Monochoria; conditions: paddy pots, treated at 1.0 leaf stage of barnyard grass, examined after 3 weeks
Source text: as §1, §2, §3, §4

[3] = test system: Japanese bulrush (Scirpus juncoides); assay: Weed control test for paddy field (Test Example 1): Japanese bulrush; conditions: paddy pots, treated at 1.0 leaf stage of barnyard grass, examined after 3 weeks
Source text: as §1, §2, §3, §4

[4] = test system: flat sedge (Cyperus serotinus); assay: Weed control test for paddy field (Test Example 1): flat sedge; conditions: paddy pots, treated at 1.0 leaf stage of barnyard grass, examined after 3 weeks
Source text: as §1, §2, §3, §4

[5] = test system: rice plant; assay: Weed control test for paddy field (Test Example 1): phytotoxicity to rice plant; conditions: paddy pots, treated at 1.0 leaf stage of barnyard grass, examined after 3 weeks
Source text: as §1, §2, §3
Evaluation of phytotoxicity is shown in the following six grades, as compared with the condition of untreated control: • 0: normal growth • 1: little damaged • 2: low damaged • 3: medium damaged • 4: serious damaged • 5: complete killed.

[6] = test system: southern crabgrass (Digitaria ciliaris); assay: Soil treatment test for upland field (Test Example 2): southern crabgrass; conditions: soil treatment before germination, examined after 3 weeks
How it was run: (§5)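 Pre-emergence soil spray: wettable powder diluted in water, applied at 15 L/are to seeded upland soil in 1/3,000 are pots. Glasshouse, avg 25° C, 3 wk. Score 0–5 by % growth inhibition vs untreated (0: <20%; 5: 100%).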

[7] = test system: common lambsquaters (Chenopodium album); assay: Soil treatment test for upland field (Test Example 2): common lambsquaters; conditions: soil treatment before germination, examined after 3 weeks
How it was run: as §5

[8] = test system: slender amaranth (Amaranthus viridis); assay: Soil treatment test for upland field (Test Example 2): slender amaranth; conditions: soil treatment before germination, examined after 3 weeks
How it was run: as §5

[9] = test system: common purslane (Portulaca oleracea); assay: Soil treatment test for upland field (Test Example 2): common purslane; conditions: soil treatment before germination, examined after 3 weeks
How it was run: as §5

[10] = test system: velvetleaf (Abutilon theophrasti); assay: Soil treatment test for upland field (Test Example 2): velvetleaf; conditions: soil treatment before germination, examined after 3 weeks
How it was run: as §5

[11] = test system: wheat; assay: Soil treatment test for upland field (Test Example 2): phytotoxicity to wheat; conditions: soil treatment before germination, examined after 3 weeks
[12] = test system: corn; assay: Soil treatment test for upland field (Test Example 2): phytotoxicity to corn; conditions: soil treatment before germination, examined after 3 weeks
[13] = test system: soybean; assay: Soil treatment test for upland field (Test Example 2): phytotoxicity to soybean; conditions: soil treatment before germination, examined after 3 weeks
[14] = test system: southern crabgrass; assay: Foliage treatment test for upland field (Test Example 3): southern crabgrass; conditions: foliage treatment at 1.0-2.0 leaf stage of southern crabgrass, examined after 3 weeks
How it was run: (§6)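 Wettable powders diluted to the prescribed dose and sprayed at 15 L/are at the 1.0-2.0 leaf stage of southern crabgrass on glasshouse-grown plants (25° C average). Effect graded 0-5 after 3 weeks from growth inhibition versus untreated control (0: <20% to 5: 100%).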

[15] = test system: common lambsquaters; assay: Foliage treatment test for upland field (Test Example 3): common lambsquaters; conditions: foliage treatment at 1.0-2.0 leaf stage of southern crabgrass, examined after 3 weeks
How it was run: as §6

[16] = test system: slender amaranth; assay: Foliage treatment test for upland field (Test Example 3): slender amaranth; conditions: foliage treatment at 1.0-2.0 leaf stage of southern crabgrass, examined after 3 weeks
How it was run: as §6

[17] = test system: common purslane; assay: Foliage treatment test for upland field (Test Example 3): common purslane; conditions: foliage treatment at 1.0-2.0 leaf stage of southern crabgrass, examined after 3 weeks
How it was run: as §6

[18] = test system: velvetleaf; assay: Foliage treatment test for upland field (Test Example 3): velvetleaf; conditions: foliage treatment at 1.0-2.0 leaf stage of southern crabgrass, examined after 3 weeks
How it was run: as §6

[19] = test system: wheat; assay: Foliage treatment test for upland field (Test Example 3): phytotoxicity to wheat; conditions: foliage treatment at 1.0-2.0 leaf stage of southern crabgrass, examined after 3 weeks
How it was run: (§7)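 Crops sown in compost-mixed soil pots, kept in a glasshouse at 25° C. average. Effect scored after 3 weeks versus untreated control on a 0–5 scale (0 normal growth, 5 complete kill).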

[20] = test system: corn; assay: Foliage treatment test for upland field (Test Example 3): phytotoxicity to corn; conditions: foliage treatment at 1.0-2.0 leaf stage of southern crabgrass, examined after 3 weeks
How it was run: as §7

[21] = test system: soybean; assay: Foliage treatment test for upland field (Test Example 3): phytotoxicity to soybean; conditions: foliage treatment at 1.0-2.0 leaf stage of southern crabgrass, examined after 3 weeks
How it was run: as §7

## COCC(=Cc1ccc(Cl)c(C(F)(F)F)c1)c1nc2cc(Cl)ccc2o1 [Compound 9]
[1]; dose 2.5 g ai/a
  Herbicidal Effect Barnyard grass: 4 (80%-less than 100%)
[1]; dose 5 g ai/a
  Herbicidal Effect Barnyard grass: 5 (100%)
[2]; dose 2.5 g ai/a
  Herbicidal Effect Monochoria vaginalis: 5 (100%)
[2]; dose 5 g ai/a
  Herbicidal Effect Monochoria vaginalis: 5 (100%)
[3]; dose 2.5 g ai/a
  Herbicidal Effect Japanese bulrush: 3 (60%-less than 80%)
[3]; dose 5 g ai/a
  Herbicidal Effect Japanese bulrush: 4 (80%-less than 100%)
[4]; dose 2.5 g ai/a
  Herbicidal Effect Flat sedge: 2 (40%-less than 60%)
[4]; dose 5 g ai/a
  Herbicidal Effect Flat sedge: 3 (60%-less than 80%)
[5]; dose 2.5 g ai/a
  Phytotoxicity Rice plant: 0
[5]; dose 5 g ai/a
  Phytotoxicity Rice plant: 0
[6]; dose 2.5 g ai/a
  Herbicidal Effect southern crabgrass: 5 (100%)
[6]; dose 5 g ai/a
  Herbicidal Effect southern crabgrass: 5 (100%)
[7]; dose 2.5 g ai/a
  Herbicidal Effect common lambsquaters: 5 (100%)
[7]; dose 5 g ai/a
  Herbicidal Effect common lambsquaters: 5 (100%)
[8]; dose 2.5 g ai/a
  Herbicidal Effect slender amaranth: 5 (100%)
[8]; dose 5 g ai/a
  Herbicidal Effect slender amaranth: 5 (100%)
[9]; dose 2.5 g ai/a
  Herbicidal Effect common purslane: 5 (100%)
[9]; dose 5 g ai/a
  Herbicidal Effect common purslane: 5 (100%)
[10]; dose 2.5 g ai/a
  Herbicidal Effect velvetleaf: 4 (80%-less than 100%)
[10]; dose 5 g ai/a
  Herbicidal Effect velvetleaf: 5 (100%)
[11]; dose 2.5 g ai/a
  Phytotoxicity wheat: 0
[11]; dose 5 g ai/a
  Phytotoxicity wheat: 1
[12]; dose 2.5 g ai/a
  Phytotoxicity corn: 1
[12]; dose 5 g ai/a
  Phytotoxicity corn: 1
[13]; dose 2.5 g ai/a
  Phytotoxicity soybean: 0
[13]; dose 5 g ai/a
  Phytotoxicity soybean: 0
[14]; dose 2.5 g ai/a
  Herbicidal Effect southern crabgrass: 5 (100%)
[14]; dose 5 g ai/a
  Herbicidal Effect southern crabgrass: 5 (100%)
[15]; dose 2.5 g ai/a
  Herbicidal Effect Common lambsquatters: 5 (100%)
[15]; dose 5 g ai/a
  Herbicidal Effect Common lambsquatters: 5 (100%)
[16]; dose 2.5 g ai/a
  Herbicidal Effect slender amaranth: 5 (100%)
[16]; dose 5 g ai/a
  Herbicidal Effect slender amaranth: 5 (100%)
[17]; dose 2.5 g ai/a
  Herbicidal Effect common purslane: 5 (100%)
[17]; dose 5 g ai/a
  Herbicidal Effect common purslane: 5 (100%)
[18]; dose 2.5 g ai/a
  Herbicidal Effect velvetleaf: 4 (80%-less than 100%)
[18]; dose 5 g ai/a
  Herbicidal Effect velvetleaf: 5 (100%)
[19]; dose 2.5 g ai/a
  Phytotoxicity wheat: 1
[19]; dose 5 g ai/a
  Phytotoxicity wheat: 1
[20]; dose 2.5 g ai/a
  Phytotoxicity corn: 1
[20]; dose 5 g ai/a
  Phytotoxicity corn: 1
[21]; dose 2.5 g ai/a
  Phytotoxicity soybean: 0
[21]; dose 5 g ai/a
  Phytotoxicity soybean: 1
